The text below walks through data of patent publication US9029389B2 (Institut Pasteur Korea, priority 2011, dated 2015).

Structures are written as SMILES.

In the test the target is T1, Human 5-lipoxygenase (Homo sapiens, UniProt P09917).
T1 construct: purchased Cayman 60402; host or cells: insect cells
T1 sequence (P09917 1-674): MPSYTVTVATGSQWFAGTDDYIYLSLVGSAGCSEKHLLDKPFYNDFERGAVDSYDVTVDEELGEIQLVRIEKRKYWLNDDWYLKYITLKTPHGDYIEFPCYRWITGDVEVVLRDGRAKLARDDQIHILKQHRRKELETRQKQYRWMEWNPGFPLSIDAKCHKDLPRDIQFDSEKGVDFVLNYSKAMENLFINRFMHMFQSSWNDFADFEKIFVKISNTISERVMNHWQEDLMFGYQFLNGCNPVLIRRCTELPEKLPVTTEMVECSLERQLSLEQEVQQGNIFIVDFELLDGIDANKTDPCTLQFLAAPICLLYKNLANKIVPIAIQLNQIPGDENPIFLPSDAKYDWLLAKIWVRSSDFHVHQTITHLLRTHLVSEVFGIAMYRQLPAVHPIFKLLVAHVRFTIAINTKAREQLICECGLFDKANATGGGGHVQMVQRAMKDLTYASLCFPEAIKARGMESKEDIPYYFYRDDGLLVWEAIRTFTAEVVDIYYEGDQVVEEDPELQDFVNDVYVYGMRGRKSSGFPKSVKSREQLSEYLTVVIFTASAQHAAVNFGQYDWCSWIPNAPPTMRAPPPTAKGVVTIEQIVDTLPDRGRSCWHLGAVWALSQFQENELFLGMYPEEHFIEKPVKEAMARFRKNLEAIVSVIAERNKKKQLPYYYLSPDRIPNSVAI
Kind of test: Activity of compounds against 5-LO enzyme (LTB4 measurement and/or fluorescence method). The format is biochemical. The settings on record: 5-LO, single concentration of 10 uM in duplicate. How it is done:
The activity of compounds against 5-LO were determined by measuring LTB4 (leukotriene B4) levels and/or by a fluorescence method. Both approaches are outlined in more detail below;
Human 5-lipoxygenase (Cayman, Cat#60402) produced in insect cells was pre-incubated with compound for 15 min at RT in incubation buffer (50 mM Tris-Cl, pH 7.4, 2 mM CaCl2, 0.1 mM ATP, 1% DMSO). The enzymatic reaction was started by adding arachidonic acid to a final concentration of 3 uM. After 5 min of incubation at 37° C., the reaction was stopped by heatinactivation at 80° C. for 5 min. LTB4 levels were quantified by using LTB4 EIA kit (Cayman, Cat#520111) as instructed and/or LTB4 levelswere measured with LC/MS/MS using Quattro Premier™ XE tandem quadrupole mass spectrometer equipped with Acquity UPLC system (Waters, Milford, Mass.). The method was slightly modified as reported previously (Zweifel et al., 2008, Willey et al., 2008, Chappell et al, 2011). Briefly, chromatographic separation was carried out with Acquity UPLC BEH Shield RP18 Column (2.1 mm×50 mm, 1.7 μm particle size, Waters, Milford, Mass.). Sample injection volume was 10 μl, the column temperature was 35° C., the mobile phase A consisted of water with 0.1% formic acid and the mobile phase B consisted of acetonitrile with 0.1% formic acid. Flow rate was 0.4 mL/min and the gradient condition was as follows.
Relative quantification of LTB4 and LTB4-d4 (Internal Standard) was done using multi reaction monitoring (MRM) of the transitions of m/z 335→195 for LTB4, 339→197 for LTB4-d4 in electrospray ionization (ESI) negative mode. Desolvation temperature was 400° C., source temperature was 130° C. Capillary voltage, cone voltage, and collision voltage were 3.5 kV, 30V, and 20 eV, respectively. Nitrogen was used for desolvation (750 L/h) and cone (50 L/h) gas. Argon was used for collision gas (0.22 ml/min). The dwell time was 10 ms.
Besides the two methods quantifying LTB4 level, a fluorescence assay measuring 5-HpETE was introduced for high-throughput screening in a 384 well microplate format (Pufahl et al., 2007). For nonspecific ester cleavage of the acetate groups in H2DCFDA, the insect cell lysate expressing human 5-LO (Cayman Cat#60402) was incubated with H2DCFDA (50 mM Tris-Cl, pH 7.5, 2 mM CaCl2, 20 uM H2DCFDA, 500 mU 5-LO per reaction) for 5 minutes. Compound and enzyme mixture were pre-incubated for 5 minutes, and the enzymatic reaction was initiated by addition of ATP and arachidonic acid to a final concentration of 100 uM and 3 uM, respectively. After 5 minutes of incubation, the fluorescence was measured using Spectramax M5 (Molecular Device, Ex/Em=485 nm/530 nm). All steps were carried out at room temperature.
A total of 378 compounds were initially tested at a single concentration of 10 uM in duplicate with the results summarized in Table 1. From these 378 compounds, 53 compounds plus an additional 25 were selected for confirmation of activity by 6 or 11 point dose response in duplicate with the corresponding IC50 values outlined in Table 2.
One may read the inhibition as the percentage by which the read-out fell short of the control. A lower inhibition goes with a response near the control. Turning to `CCOC(=O)c1c(C)nc2ccccn12` [compound 1, Ethyl 2-methylimidazo[1,2-a]pyridine-3-carboxylate], the inhibition at 10 µM was less than 40%.
`Cc1nc2ccccn2c1C(=O)O` [compound 2, 2-Methylimidazo[1,2-a]pyridine-3-carboxylic acid]: the inhibition at 10 µM was less than 40%.
Consider `Cc1nc2ccccn2c1C(=O)NCc1ccccc1` [compound 3, N-Benzyl-2-methylimidazo[1,2-a]pyridine-3-carboxamide], for which the inhibition at 10 µM was less than 40%.
As to `Cc1nc2ccccn2c1C(=O)NCc1ccc(F)cc1` [compound 4, N-(4-Fluorobenzyl)-2-methylimidazo[1,2-a]pyridine-3-carboxamide], the inhibition at 10 µM was less than 40%.
To `Cc1nc2ccccn2c1C(=O)NCc1cccnc1` [compound 5, 2-Methyl-N-(pyridin-3-ylmethyl)imidazo[1,2-a]pyridine-3-carboxamide] belongs less than 40%; to `Cc1nc2ccccn2c1C(=O)NCc1ccc(Oc2ccccc2)cc1` [compound 6, 2-Methyl-N-(4-phenoxybenzyl)imidazo[1,2-a]pyridine-3-carboxamide], less than 40%.
`COc1ccc(CNC(=O)c2c(C)nc3ccccn23)cc1` [compound 7, N-(4-Methoxybenzyl)-2-methylimidazo[1,2-a]pyridine-3-carboxamide] yielded an inhibition at 10 µM of less than 40%.
As to `COc1ccc(CCNC(=O)c2c(C)nc3ccccn23)cc1` [compound 8, N-(4-Methoxyphenethyl)-2-methylimidazo[1,2-a]pyridine-3-carboxamide], the inhibition at 10 µM is less than 40%.
To `Cc1nc2ccccn2c1C(=O)NCC1CCCCC1` [compound 9, N-(Cyclohexylmethyl)-2-methylimidazo[1,2-a]pyridine-3-carboxamide] belongs less than 40%; to `Cc1nc2ccccn2c1C(=O)NCC1CCN(C(=O)OC(C)(C)C)CC1` [compound 10, tert-Butyl 4-((2-methylimidazo[1,2-a]pyridine-3-carboxamido)methyl)piperidine-1-carboxylate], less than 40%; to `Cc1nc2ccccn2c1C(=O)Nc1ccncc1` [compound 11, 2-Methyl-N-(pyridin-4-yl)imidazo[1,2-a]pyridine-3-carboxamide], less than 40%.
Consider `Cc1nc2ccccn2c1C(=O)NCCc1ccccc1` [compound 12, 2-Methyl-N-phenethylimidazo[1,2-a]pyridine-3-carboxamide], for which the inhibition at 10 µM was less than 40%.
To `Cc1nc2ccccn2c1C(=O)Nc1ccc(Oc2ccccc2)cc1` [compound 13, 2-Methyl-N-(4-phenoxyphenyl)imidazo[1,2-a]pyridine-3-carboxamide] belongs less than 40%; to `Cc1nc2ccccn2c1C(=O)Nc1ccc(OCc2ccccc2)cc1` [compound 14, N-(4-(Benzyloxy)phenyl)-2-methylimidazo[1,2-a]pyridine-3-carboxamide], less than 40%.
As for `Cc1nc2c(Cl)cccn2c1C(=O)NCc1ccccc1` [compound 15, N-Benzyl-8-chloro-2-methylimidazo[1,2-a]pyridine-3-carboxamide], the inhibition at 10 µM is less than 40%.
To `Cc1nc2cc(Cl)ccn2c1C(=O)NCc1ccccc1` [compound 16, N-Benzyl-7-chloro-2-methylimidazo[1,2-a]pyridine-3-carboxamide] belongs less than 40%; to `Cc1nc2ccc(Cl)cn2c1C(=O)NCc1ccccc1` [compound 17, N-Benzyl-6-chloro-2-methylimidazo[1,2-a]pyridine-3-carboxamide], less than 40%; to `CCOC(=O)c1c(C)nc2cc(-c3ccccc3)ccn12` [compound 18, Ethyl 2-methyl-7-phenylimidazo[1,2-a]pyridine-3-carboxylate], 40 to 69%.
To `Cc1nc2cc(-c3ccccc3)ccn2c1C(=O)O` [compound 19, 2-Methyl-7-phenylimidazo[1,2-a]pyridine-3-carboxylic acid] belongs less than 40%; to `Cc1nc2ccccn2c1C(=O)NCc1ccc(-c2ccccc2)cc1` [compound 20, N-(Biphenyl-4-ylmethyl)-2-methylimidazo[1,2-a]pyridine-3-carboxamide], 40 to 69%; to `Cc1nc2ccccn2c1C(=O)NCc1ccc2[nH]ccc2c1` [compound 21, N-((1H-Indol-5-yl)methyl)-2-methylimidazo[1,2-a]pyridine-3-carboxamide], less than 40%.
To `Cc1nc2cc(-c3ccccc3)ccn2c1C(=O)NCc1ccccc1` [compound 22, N-Benzyl-2-methyl-7-phenylimidazo[1,2-a]pyridine-3-carboxamide] belongs 40 to 69%; to `COC(=O)[C@H](Cc1ccccc1)NC(=O)c1c(C)nc2ccccn12` [compound 23, (S)-Methyl 2-(2-methylimidazo[1,2-a]pyridine-3-carboxamido)-3-phenylpropanoate], less than 40%.
As to `Cc1nc2ccccn2c1C(=O)NCC1CCNCC1` [compound 24, 2-Methyl-N-(piperidin-4-ylmethyl)imidazo[1,2-a]pyridine-3-carboxamide], the inhibition at 10 µM is less than 40%.
With `COC(=O)c1ccc(CNC(=O)c2c(C)nc3ccccn23)cc1` [compound 25, Methyl 4-((2-methylimidazo[1,2-a]pyridine-3-carboxamido)methyl)benzoate] the figure was less than 40%; with `Cc1nc2ccccn2c1C(=O)NCc1ccc(C(=O)O)cc1` [compound 26, 4-((2-Methylimidazo[1,2-a]pyridine-3-carboxamido)methyl)benzoic acid], less than 40%; with `CCOC(=O)c1c(C)nc2ccc(-c3ccccc3)cn12` [compound 27, Ethyl 2-methyl-6-phenylimidazo[1,2-a]pyridine-3-carboxylate], 40 to 69%.
On to `Cc1nc2ccccn2c1C(=O)NCCOc1ccccc1` [compound 28, 2-Methyl-N-(2-phenoxyethyl)imidazo[1,2-a]pyridine-3-carboxamide], for which the inhibition at 10 µM was less than 40%.
To `Cc1nc2ccccn2c1C(=O)NCCOCc1ccccc1` [compound 29, N-(2-(Benzyloxy)ethyl)-2-methylimidazo[1,2-a]pyridine-3-carboxamide] belongs less than 40%.
Consider `Cc1nc2ccc(C#N)cn2c1C(=O)NCc1ccccc1` [compound 30, N-Benzyl-6-cyano-2-methylimidazo[1,2-a]pyridine-3-carboxamide], for which the inhibition at 10 µM was less than 40%.
Regarding `Cc1nc2c(C)cccn2c1C(=O)NCc1ccccc1` [compound 31, N-Benzyl-2,8-dimethylimidazo[1,2-a]pyridine-3-carboxamide], the inhibition at 10 µM is less than 40%.
To `Cc1ccn2c(C(=O)NCc3ccccc3)c(C)nc2c1` [compound 32, N-Benzyl-2,7-dimethylimidazo[1,2-a]pyridine-3-carboxamide] belongs less than 40%; to `Cc1ccc2nc(C)c(C(=O)NCc3ccccc3)n2c1` [compound 33, N-Benzyl-2,6-dimethylimidazo[1,2-a]pyridine-3-carboxamide], less than 40%.
